The test has as its target T1, human oxytocin receptor (Homo sapiens, UniProt P30559).
T1 construct: host or cells: CHO cells (pcDNA3.1 vector)
T1 sequence (P30559 1-389): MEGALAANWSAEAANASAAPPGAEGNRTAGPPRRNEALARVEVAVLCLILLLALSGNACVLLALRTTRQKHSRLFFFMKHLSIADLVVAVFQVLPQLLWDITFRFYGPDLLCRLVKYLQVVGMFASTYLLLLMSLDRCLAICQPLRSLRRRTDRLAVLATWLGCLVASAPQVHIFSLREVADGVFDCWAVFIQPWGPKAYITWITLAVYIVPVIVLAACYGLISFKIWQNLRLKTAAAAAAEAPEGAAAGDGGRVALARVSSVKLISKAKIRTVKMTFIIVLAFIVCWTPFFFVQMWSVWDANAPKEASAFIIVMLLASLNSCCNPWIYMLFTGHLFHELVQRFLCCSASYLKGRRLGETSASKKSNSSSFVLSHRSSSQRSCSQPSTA
Nature of the test: Oxytocin binding in Chinese Hamster Ovary cell membranes expressing human oxytocin receptors. The settings on record: 100 nM, CHO cell membranes, [3H]oxytocin, values without parentheses, read-out: OT % inhibition @ 100% nM.

Structures are written as SMILES.

The source of these data is US7109193B2, “Tricyclic diazepines tocolytic oxytocin receptor antagonists” (Wyeth, priority 2001, dated 2006).

As a reminder, the inhibition is the relative decrease from the control value, in per cent.

As to `COc1cc(-c2ccccc2C)c(Cl)cc1C(=O)N1Cc2ccc(C(=O)N(C)C3CCN(C)C3)n2Cc2ccccc21` (centres unmarked) [Example 190, 10-[(6-Chloro-3-methoxy-2′-methyl[1,1′-biphenyl]-4-yl)carbonyl]-N-methyl-N-(1-methyl-3-pyrrolidinyl)-10,11-dihydro-5H-pyrrolo[2,1-c][1,4]benzodiazepine-3-carboxamide], the inhibition at 0.1 µM stood at 99%.
With `COc1cccc(-c2cc(OC)c(C(=O)N3Cc4ccc(C(=O)N(C)C5CCN(C)C5)n4Cc4ccccc43)cc2Cl)c1` (centres unmarked) [Example 191, 10-[(6-Chloro-3,3′-dimethoxy[1,1′-biphenyl]-4-yl)carbonyl]-N-methyl-N-(1-methyl-3-pyrrolidinyl)-10,11-dihydro-5H-pyrrolo[2,1-c][1,4]benzodiazepine-3-carboxamide] the figure was 100%; with `COc1cc(C(=O)N2Cc3ccc(C(=O)N(C)C4CCN(C)C4)n3Cc3ccccc32)ccc1-c1cccc2ccccc12` (centres unmarked) [Example 192, 10-[3-Methoxy-4-(1-naphthyl)benzoyl]-N-methyl-N-(1-methyl-3-pyrrolidinyl)-10,11-dihydro-5H-pyrrolo[2,1-c][1,4]benzodiazepine-3-carboxamide], 91%.
As to `COc1ccccc1-c1ccc(C(=O)N2Cc3ccc(C(=O)N(C)C4CCN(C)C4)n3Cc3ccccc32)cc1OC` (centres unmarked) [Example 193, 10-[(2,2′-Dimethoxy[1,1′-biphenyl]-4-yl)carbonyl]-N-methyl-N-(1-methyl-3-pyrrolidinyl)-10,11-dihydro-5H-pyrrolo[2,1-c][1,4]benzodiazepine-3-carboxamide], the inhibition at 0.1 µM stood at 96%.
For `Cc1cc(C(=O)N2Cc3ccc(C(=O)N(C)C4CCN(C)C4)n3Cc3ccccc32)ccc1-c1ccccc1C(F)(F)F` (centres unmarked) [Example 194, N-Methyl-N-(1-methyl-3-pyrrolidinyl)-10-{[2-methyl-2′-(trifluoromethyl)[1,1′-biphenyl]-4-yl]carbonyl}-10,11-dihydro-5H-pyrrolo[2,1-c][1,4]benzodiazepine-3-carboxamide], the inhibition at 0.1 µM was found to be 96%.
With `Cc1ccccc1-c1ccc(C(=O)N2Cc3ccc(C(=O)N4CCN(CCN(C)C)CC4)n3Cc3ccccc32)cc1C` [Example 198, {4-[2-(Dimethylamino)ethyl]-1-piperazinyl}{10-[(2,2′-dimethyl[1,1′-biphenyl]-4-yl)carbonyl]-10,11-dihydro-5H-pyrrolo[2,1-c][1,4]benzodiazepin-3-yl}methanone] the figure was 94%; with `Cc1ccccc1-c1ccc(C(=O)N2Cc3ccc(C(=O)N4CCN(CCN(C)C)CC4)n3Cc3ccccc32)cc1` [Example 200, {4-[2-(Dimethylamino)ethyl]-1-piperazinyl}{10-[(2′-methyl[1,1′-biphenyl]-4-yl)carbonyl]-10,11-dihydro-5H-pyrrolo[2,1-c][1,4]benzodiazepin-3-yl}methanone], 87%; with `COc1cc(C(=O)N2Cc3ccc(C(=O)N4CCN(CCN(C)C)CC4)n3Cc3ccccc32)ccc1-c1ccccc1C` [Example 201, {4-[2-(Dimethylamino)ethyl]-1-piperazinyl}{10-[(2-methoxy-2′-methyl[1,1′-biphenyl]-4-yl)carbonyl]-10,11-dihydro-5H-pyrrolo[2,1-c][1,4]benzodiazepin-3-yl}methanone], 86%.
For `COc1cccc(-c2cc(OC)c(C(=O)N3Cc4ccc(C(=O)N5CCN(CCN(C)C)CC5)n4Cc4ccccc43)cc2Cl)c1` [Example 202, {10-[(6-Chloro-3,3′-dimethoxy[1,1′-biphenyl]-4-yl)carbonyl]-10,11-dihydro-5H-pyrrolo[2,1-c][1,4]benzodiazepin-3-yl}{4-[2-(dimethylamino)ethyl]-1-piperazinyl}methanone] the value was 73%; for `COc1cc(C(=O)N2Cc3ccc(C(=O)N4CCN(CCN(C)C)CC4)n3Cc3ccccc32)ccc1-c1cccc2ccccc12` [Example 203, {4-[2-(Dimethylamino)ethyl]-1-piperazinyl}{10-[3-methoxy-4-(1-naphthyl)benzoyl]-10,11-dihydro-5H-pyrrolo[2,1-c][1,4]benzodiazepin-3-yl}methanone], 62%; for `COc1ccccc1-c1ccc(C(=O)N2Cc3ccc(C(=O)N4CCN(CCN(C)C)CC4)n3Cc3ccccc32)cc1OC` [Example 204, {10-[(2,2′-Dimethoxy[1,1′-biphenyl]-4-yl)carbonyl]-10,11-dihydro-5H-pyrrolo[2,1-c][1,4]benzodiazepin-3-yl}{4-[2-(dimethylamino)ethyl]-1-piperazinyl}methanone], 72%.
With `CN(C)CCN1CCN(C(=O)c2ccc3n2Cc2ccccc2N(C(=O)c2ccc(-c4cccc5ccccc45)cc2Cl)C3)CC1` [Example 205, {10-[2-Chloro-4-(1-naphthyl)benzoyl]-10,11-dihydro-5H-pyrrolo[2,1-c][1,4]benzodiazepin-3-yl}{4-[2-(dimethylamino)ethyl]-1-piperazinyl}methanone] the figure was 24%; with `COc1cccc(-c2ccc(C(=O)N3Cc4ccc(C(=O)N5CCN(CCN6CCOCC6)CC5)n4Cc4ccccc43)cc2C)c1` [Example 208, {10-[(3′-Methoxy-2-methyl[1,1′-biphenyl]-4-yl)carbonyl]-10,11-dihydro-5H-pyrrolo[2,1-c][1,4]benzodiazepin-3-yl}{4-[2-(4-morpholinyl)ethyl]-1-piperazinyl}methanone], 81%.
Consider `Cc1ccccc1-c1ccc(C(=O)N2Cc3ccc(C(=O)N4CCN(CCN5CCOCC5)CC4)n3Cc3ccccc32)cc1` [Example 209, {10-[(2′-Methyl[1,1′-biphenyl]-4-yl)carbonyl]-10,11-dihydro-5H-pyrrolo[2,1-c][1,4]benzodiazepin-3-yl}{4-[2-(4-morpholinyl)ethyl]-1-piperazinyl}methanone], for which the inhibition at 0.1 µM is 81%.
With `COc1cc(C(=O)N2Cc3ccc(C(=O)N4CCN(CCN5CCOCC5)CC4)n3Cc3ccccc32)ccc1-c1ccccc1C` [Example 210, {10-[(2-Methoxy-2′-methyl[1,1′-biphenyl]-4-yl)carbonyl]-10,11-dihydro-5H-pyrrolo[2,1-c][1,4]benzodiazepin-3-yl}{4-[2-(4-morpholinyl)ethyl]-1-piperazinyl}methanone] the figure was 82%; with `COc1cccc(-c2ccc(C(=O)N3Cc4ccc(C(=O)N5CCN(CCN6CCOCC6)CC5)n4Cc4ccccc43)cc2OC)c1` [Example 211, {10-[(2,3′-Dimethoxy[1,1′-biphenyl]-4-yl)carbonyl]-10,11-dihydro-5H-pyrrolo[2,1-c][1,4]benzodiazepin-3-yl}{4-[2-(4-morpholinyl)ethyl]-1-piperazinyl}methanone], 87%; with `COc1cc(C(=O)N2Cc3ccc(C(=O)N4CCN(CCN5CCOCC5)CC4)n3Cc3ccccc32)ccc1-c1cccc2ccccc12` [Example 213, {10-[3-Methoxy-4-(1-naphthyl)benzoyl]-10,11-dihydro-5H-pyrrolo[2,1-c][1,4]benzodiazepin-3-yl}{4-[2-(4-morpholinyl)ethyl]-1-piperazinyl}methanone], 70%.
For `COc1ccccc1-c1ccc(C(=O)N2Cc3ccc(C(=O)N4CCN(CCN5CCOCC5)CC4)n3Cc3ccccc32)cc1OC` [Example 214, {10-[(2,2′-Dimethoxy[1,1′-biphenyl]-4-yl)carbonyl]-10,11-dihydro-5H-pyrrolo[2,1-c][1,4]benzodiazepin-3-yl}{4-[2-(4-morpholinyl)ethyl]-1-piperazinyl}methanone], the inhibition at 0.1 µM is 64%.
With `O=C(c1ccc2n1Cc1ccccc1N(C(=O)c1ccc(-c3cccc4ccccc34)cc1Cl)C2)N1CCN(CCN2CCOCC2)CC1` [Example 215, {10-[2-Chloro-4-(1-naphthyl)benzoyl]-10,11-dihydro-5H-pyrrolo[2,1-c][1,4]benzodiazepin-3-yl}{4-[2-(4-morpholinyl)ethyl]-1-piperazinyl}methanone] the figure was 26%; with `Cc1cc(C(=O)N2Cc3ccc(C(=O)N4CCN(CCN5CCOCC5)CC4)n3Cc3ccccc32)ccc1-c1ccccc1C(F)(F)F` [Example 216, (10-{[2-Methyl-2′-(trifluoromethyl)[1,1′-biphenyl]-4-yl]carbonyl}-10,11-dihydro-5H -pyrrolo[2,1-c][1,4]benzodiazepin-3-yl){4-[2-(4-morpholinyl)ethyl]-1-piperazinyl}methanone], 82%.
For `COc1cc(-c2ccccc2C)c(Cl)cc1C(=O)N1Cc2ccc(C(=O)N3CCN(CCN4CCOCC4)CC3)n2Cc2ccccc21` [Example 217, {10-[(6-Chloro-3-methoxy-2′-methyl[1,1′-biphenyl]-4-yl)carbonyl]-10,11-dihydro-5H -pyrrolo[2,1-c][1,4]benzodiazepin-3-yl}{4-[2-(4-morpholinyl)ethyl]-1-piperazinyl}methanone] the value was 98%; for `Cc1ccccc1-c1ccc(C(=O)N2Cc3ccc(C(=O)N4CCN(CCN5CCOCC5)CC4)n3Cc3ccccc32)cc1C` [Example 218, {10-[(2,2′-Dimethyl[1,1′-biphenyl]-4-yl)carbonyl]-10,11-dihydro-5H-pyrrolo[2,1-c][1,4]benzodiazepin-3-yl}{4-[2-(4-morpholinyl)ethyl]-1-piperazinyl}methanone], 98%.
For `C=CCN1CCN(C(=O)c2ccc3n2Cc2ccccc2N(C(=O)c2ccc(-c4ccccc4OC)c(C)c2)C3)CC1` [Example 222, (4-Allyl-1-piperazinyl){10-[(2′-methoxy-2-methyl[1,1′-biphenyl]-4-yl)carbonyl]-10,11-dihydro-5H-pyrrolo[2,1-c][1,4]benzodiazepin-3-yl}methanone], the inhibition at 0.1 µM was 84%.
